Measurements as given in patent US4304781A, “Treatment of ulcers and hypertension” (John Wyeth & Brother Limited, priority 1978, dated 1981).

Columns and labels:
Type in all cases: in vivo
hypersecretion = assay: Anti-secretory activity test (Shay et al); design: key to Anti-secretory, % change in Vol.: NS: Not Significant; conditions: for change in vivo at 30 mg/kg / change in vivo at 10 mg/kg: read-out: Anti-secretory, % change in Vol.; for change in vivo at 30 mg/kg / Anti-secretory, % change in Vol.: 30 mg/kg
Method: (§1) Anti-ulcer activity was determined by the stress-induced erosion test of Senay & Levine, Proc. Soc. Exp. Biol. Med., 124, 1221-1223 (1967) and anti-secretory activity by the test of H. Shay, D. Sun and H. Greenstin, Gastroenterology, 1954, 26, 903-913 as exemplified by Beattie et al J. Med. Chem., 20, 714 (1977). […] However, some compounds show activity in tests for anti-hypertensive activity.

stress-induced erosion = assay: Stress-induced erosion test (Senay & Levine), anti-ulcer activity
Method: as §1

[1] = test system: male spontaneously hypertensive rats; assay: Antihypertensive activity, Procedure A: systolic pressure of spontaneously hypertensive rats; conditions: 50 mg/kg orally
Method: Systolic pressure of male spontaneously hypertensive rats is measured by an indirect technique using the Decker Caudal Plethysmograph or other appropriate sensor. Groups usually consist of 4 rats. Drugs are usually administered orally. Pressures are usually read prior to drug administration and at 1.5, 4 and 24 hours thereafter. This schedule may be altered depending upon the behaviour of the drug.

`C[n+]1ccccc1SCc1ccccc1` [Example 1, 2-Benzylthio-1-methylpyridinium bromide] showed a change in vivo at 30 mg/kg (hypersecretion) of -71%, an inhibition in vivo at 30 mg/kg (stress-induced erosion) of 92% and an inhibition in vivo at 100 mg/kg (stress-induced erosion) of 75%.

For `C[n+]1ccccc1SCc1ccc([N+](=O)[O-])cc1` [Example 6, 1-Methyl-2-(4-nitrobenzylthio)pyridinium bromide], the “Anti-secretory, % change in Vol.” value (hypersecretion) was “NS” and the inhibition in vivo at 100 mg/kg (stress-induced erosion) was 84%.

`C[n+]1ccccc1SCCCc1ccccc1` [Example 7, 1-Methyl-2-(3-phenylpropylthio)pyridinium bromide] was tested, and the “Anti-secretory, % change in Vol.” value (hypersecretion) was “NS” and the inhibition in vivo at 100 mg/kg (stress-induced erosion) was 77%.

With `Cc1ccc(CSc2cccc[n+]2C)cc1C` [Example 8, 1-Methyl-2-(3,4-dimethylbenzylthio)pyridinium chloride] the “Anti-secretory, % change in Vol.” value (hypersecretion) was “NS”, the inhibition in vivo at 30 mg/kg (stress-induced erosion) was 70% and the inhibition in vivo at 100 mg/kg (stress-induced erosion) was 62%.

`CC(CSc1cccc[n+]1C)c1ccccc1` (stereo not shown) [Example 9, 1-Methyl-2-(2-phenylpropylthio)pyridinium bromide] showed a change in vivo at 30 mg/kg (hypersecretion) of -32%.

`Cc1ccc(CSc2cccc[n+]2C)cc1` [Example 10, 1-Methyl-2(4-methylbenzylthio)pyridinium bromide] was tested, and the change in vivo at 30 mg/kg (hypersecretion) was -43%.

With `C[n+]1ccccc1SCc1ccc(Br)cc1` [Example 13, 2-(4-Bromobenzylthio)-1-methylpyridinium bromide] the “Anti-secretory, % change in Vol.” value (hypersecretion) was “NS”, the inhibition in vivo at 30 mg/kg (stress-induced erosion) was 73% and the inhibition in vivo at 100 mg/kg (stress-induced erosion) was 70%.

In the case of `C[n+]1ccccc1SCc1ccc(OCc2ccccc2)cc1` [Example 14, 2-(((4-Benzyloxy)benzyl)thio)-1-methylpyridinium chloride], the change in vivo at 10 mg/kg (hypersecretion) was -19%, the change in vivo at 30 mg/kg (hypersecretion) was -49% and the inhibition in vivo at 10 mg/kg (stress-induced erosion; 10 mg/kg) was 60%. For the same compound, the inhibition in vivo at 30 mg/kg (stress-induced erosion) was 73% and the inhibition in vivo at 100 mg/kg (stress-induced erosion) was 90%.

`C[n+]1ccccc1SCC=Cc1ccccc1` [Example 16, 2-Cinnamylthio-1-methylpyridinium bromide] gave a change in vivo at 30 mg/kg (hypersecretion) of -55%.

`CCOC(OCC)c1ccc[n+](-c2ccccc2)c1SCc1ccccc1` [Example 19, 2-Benzylthio-3-(diethoxy)methyl-1-phenylpyridinium chloride] was tested, and the change in vivo at 30 mg/kg (hypersecretion) was -88%.

`C[n+]1ccccc1SCc1ccccc1F` [Example 20, 2-((2-Fluorobenzyl)thio)-1-methyloyridinium chloride] gave a change in vivo at 10 mg/kg (hypersecretion) of -54%, a change in vivo at 30 mg/kg (hypersecretion) of -90% and an inhibition in vivo at 30 mg/kg (stress-induced erosion) of 76%. The inhibition in vivo at 100 mg/kg (stress-induced erosion) was 70%.

In the case of `C[n+]1ccccc1SCc1ccc(F)cc1` [Example 21, 2((4-Fluorobenzyl)thio)-1-methylpyridinium chloride], the change in vivo at 30 mg/kg (hypersecretion) was -67%, the inhibition in vivo at 30 mg/kg (stress-induced erosion) was 71% and the inhibition in vivo at 100 mg/kg (stress-induced erosion) was 82%.

For `C[n+]1ccccc1SCc1cccc(F)c1` [Example 22, 2-((-3-Fluorobenzyl)thio)-1-methylpyridinium chloride], the change in vivo at 30 mg/kg (hypersecretion) was -69%, the inhibition in vivo at 30 mg/kg (stress-induced erosion) was 64% and the inhibition in vivo at 100 mg/kg (stress-induced erosion) was 72%.

In the case of `C[n+]1ccc(SCc2ccccc2)cc1` [Example 23, 4-Benzylthio-1-methylpyridinium bromide], the “Anti-secretory, % change in Vol.” value (hypersecretion) was “NS”, the inhibition in vivo at 30 mg/kg (stress-induced erosion) was 70% and the inhibition in vivo at 100 mg/kg (stress-induced erosion) was 80%.

Work on `C[n+]1ccc(SCc2cccc(Cl)c2)cc1` [Example 24, 4-((3-Chlorobenzyl)thio)-1-methylpyridinium chloride] yielded a change in vivo at 30 mg/kg (hypersecretion) of -40%, an inhibition in vivo at 30 mg/kg (stress-induced erosion) of 60% and an inhibition in vivo at 100 mg/kg (stress-induced erosion) of 23%.

`Cc1cccc(CSc2cccc[n+]2C)c1` [Example 25, 1-Methyl-2-((3-methylbenzyl)thio)pyridinium chloride] showed a change in vivo at 30 mg/kg (hypersecretion) of -69%, an inhibition in vivo at 30 mg/kg (stress-induced erosion) of 75% and an inhibition in vivo at 100 mg/kg (stress-induced erosion) of 80%.

`COc1ccc(CSc2cccc[n+]2C)cc1` [Example 26, 2-((4-Methoxybenzyl)thio)-1-methylpyridinium chloride] gave a change in vivo at 30 mg/kg (hypersecretion) of -46%.

Compound `C[n+]1ccccc1SCc1ccccc1Cl` [Example 27, 2-((2-Chlorobenzyl)thio)-1-methylpyridinium chloride] has a change in vivo at 10 mg/kg (hypersecretion) of -39% and a change in vivo at 30 mg/kg (hypersecretion) of -66%.

With `C[n+]1ccccc1SCc1cc(Cl)cc(Cl)c1` [Example 28, 2-(3,5-Dichlorobenzyl)thio)-1-methylpyridinium chloride] the change in vivo at 30 mg/kg (hypersecretion) was -55%.

With `C[n+]1cccc(C=O)c1SCc1ccccc1` [Example 29, 2-Benzylthio-3-formyl-1-methylpyridinium bromide] the change in vivo at 30 mg/kg (hypersecretion) was -48% and the inhibition in vivo at 100 mg/kg (stress-induced erosion) was 71%.

Compound `OCc1ccc[n+](-c2ccccc2)c1SCc1ccccc1` [Example 30, 2-Benzylthio-3-hydroxymethyl-1-phenylpyridinium bromide] has a change in vivo at 30 mg/kg (hypersecretion) of -42% and an inhibition in vivo at 100 mg/kg (stress-induced erosion) of 71%.

For `Clc1cccc(CSc2ccncc2)c1` [Example 31, 4((3-Chloro)benzylthio)pyridine], the change in vivo at 30 mg/kg (hypersecretion) was -34% and the inhibition in vivo at 100 mg/kg (stress-induced erosion) was 62%.

In the case of `C[n+]1ccccc1SCc1cccc([N+](=O)[O-])c1` [Example 32, 1-Methyl-2-((3-nitro)benzylthio)pyridinium chloride], the “Anti-secretory, % change in Vol.” value (hypersecretion) was “NS” and the inhibition in vivo at 100 mg/kg (stress-induced erosion) was 73%.

With `Cc1ccccc1CSc1cccc[n+]1C` [Example 33, 1-Methyl-2-((2-methyl)benzylthio)pyridinium bromide] the “Anti-secretory, % change in Vol.” value (hypersecretion) was “NS” and the inhibition in vivo at 100 mg/kg (stress-induced erosion) was 73%.

In the case of `c1ccc(CSc2ccncc2)cc1` [Example 34, 4-Benzylmercaptopyridine], the “Anti-secretory, % change in Vol.” value (hypersecretion) was “NS” and the inhibition in vivo at 100 mg/kg (stress-induced erosion) was 64%.

In the case of `C[n+]1ccccc1SCc1cccc(I)c1` [Example 35, 2-((3-Iodobenzyl)thio)-1-methylpyridinium chloride], the change in vivo at 30 mg/kg (hypersecretion) was -41% and the inhibition in vivo at 100 mg/kg (stress-induced erosion) was 67%.

For `COc1cccc(CSc2cccc[n+]2C)c1` [Example 36, 2-((3-Methoxybenzyl)thio)-1-methylpryridinum chloride], the “Anti-secretory, % change in Vol.” value (hypersecretion) was “NS” and the inhibition in vivo at 100 mg/kg (stress-induced erosion) was 69%.

With `C[n+]1ccccc1SCc1cccc(C(F)(F)F)c1` [Example 37, 1-Methyl-2-((3-trifluoromethylbenzyl)thio)pyridinium chloride] the “Anti-secretory, % change in Vol.” value (hypersecretion) was “NS” and the “Antihypertensive activity (Procedure A)” value [1] was “showed activity”.

With `c1ccc(CSc2ccccn2)cc1` [Example 38, 2-((Benzyl)thio)pyridine] the change in vivo at 30 mg/kg (hypersecretion) was -32%.

With `C[n+]1ccccc1SC(c1ccccc1)c1ccccc1` [Example 39, 2-((Diphenylmethyl)thio)-1-methyloyridinium bromide] the “Anti-secretory, % change in Vol.” value (hypersecretion) was “NS” and the “Antihypertensive activity (Procedure A)” value [1] was “showed activity”.

Compound `C[n+]1ccccc1SCCCCc1ccccc1` [Example 40, 1-Methyl-2-((4-phenylbutyl)thio)pyridinium bromide] has a change in vivo at 30 mg/kg (hypersecretion) of -36% and an inhibition in vivo at 100 mg/kg (stress-induced erosion) of 67%.

`O=[N+]([O-])c1ccc(C[n+]2ccccc2SCc2ccccc2)cc1` [Example 41, 1-(4-Nitrobenzyl)-2-(benzylthio)-pyridinium bromide] was tested, and the “Anti-secretory, % change in Vol.” value (hypersecretion) was “NS” and the inhibition in vivo at 100 mg/kg (stress-induced erosion) was 69%.

In the case of `c1ccc(CSC2=NCCCC2)cc1` [Example 43, 2-Benzylthio-3,4,5,6-tetrahydropyridine], the change in vivo at 30 mg/kg (hypersecretion) was -48%.

In the case of `C[N+]1=C(SCc2ccccc2)CCCC1` [Example 44, 2-Benzylthio-3,4,5,6-tetrahydro-1-methylpyridinium bromide], the change in vivo at 30 mg/kg (hypersecretion) was -52%.

Work on `c1ccc(CSc2cccc[n+]2Cc2ccccc2)cc1` [Example 45, 1-Benzyl-2-(benzylthio)pyridinium bromide] yielded a change in vivo at 30 mg/kg (hypersecretion) of -75%.
